Data taken from ChEMBL document CHEMBL1201862, “PubChem BioAssay data set” (2004).
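Exposure lasted 48 hours, with cells grown in 96-well plates and compounds tested at five concentrations. The concentration for 50% growth inhibition is given as GI50.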 Active and inactive are the calls of the source. Rule as the data show it: active = GI50 up to about 1.1 µM and inactive = higher.

Experiments:
Assay in all cases: NCI tumour cell line growth inhibition, 48 h
[1] = test system: A498
[2] = test system: BT-549
[3] = test system: CAKI-1
[4] = test system: EKVX
[5] = test system: HCT-15
[6] = test system: KM12
[7] = test system: LOX IMVI
[8] = test system: M14
[9] = test system: MDA-MB-435
[10] = test system: NCI-H23
[11] = test system: NCI-H522
[12] = test system: OVCAR-5
[13] = test system: SF-295
[14] = test system: SK-MEL-28
[15] = test system: SK-MEL-2
[16] = test system: SF-539
[17] = test system: SK-OV-3
[18] = test system: HCC 2998

Row | SMILES | GI50 [1] | GI50 [2] | GI50 [3] | GI50 [4] | GI50 [5] | GI50 [6] | GI50 [7] | GI50 [8] | GI50 [9] | GI50 [10] | GI50 [11] | GI50 [12] | GI50 [13] | GI50 [14] | GI50 [15] | GI50 [16] | GI50 [17] | GI50 [18]
1 | C[N+]1(CCCC[N+]2(C)CCCCCCC2)CCCCCCC1 | > 100 µM (inactive) | > 100 µM (inactive) | > 100 µM (inactive) | > 100 µM (inactive) | > 100 µM | > 100 µM (inactive) | > 100 µM (inactive) | > 100 µM (inactive) | > 100 µM (inactive) | > 100 µM (inactive) | > 100 µM (inactive) | > 100 µM (inactive) | > 100 µM (inactive) | > 100 µM (inactive) | > 100 µM (inactive) |  |  | 
2 | CCOC(=O)NNC(=O)NCCCCNC(=O)NNC(=O)OCC | > 100 µM (inactive) | > 100 µM (inactive) | > 100 µM (inactive) | > 100 µM (inactive) | > 100 µM | 98.2 µM (inactive) | > 100 µM (inactive) | > 100 µM (inactive) | > 100 µM (inactive) | > 100 µM (inactive) | > 100 µM (inactive) | > 100 µM (inactive) | > 100 µM (inactive) | > 100 µM (inactive) | > 100 µM (inactive) | > 100 µM (inactive) | > 100 µM (inactive) | 
3 | CC1(C)CC(C2=NCCO2)CC(C)(C)N1 | > 100 µM (inactive) | > 100 µM (inactive) | > 100 µM (inactive) | > 100 µM (inactive) | > 100 µM |  | > 100 µM (inactive) | > 100 µM (inactive) | > 100 µM (inactive) | > 100 µM (inactive) |  | > 100 µM (inactive) | > 100 µM (inactive) | > 100 µM (inactive) | > 100 µM (inactive) | > 100 µM (inactive) | > 100 µM (inactive) | 
4 | O=c1n(-c2ccccc2)c(=O)n2n1C1C=CC2CCCCCC1 |  | 97.3 µM (inactive) | > 100 µM (inactive) | > 100 µM (inactive) | > 100 µM | > 100 µM (inactive) | > 100 µM (inactive) | > 100 µM (inactive) | > 100 µM (inactive) | > 100 µM (inactive) | 22.8 µM (inactive) | > 100 µM (inactive) | > 100 µM (inactive) | > 100 µM (inactive) | > 100 µM (inactive) | > 100 µM (inactive) | > 100 µM (inactive) | > 100 µM (inactive)
5 | CCN(CC)c1ccc(C2SCC(=O)N2c2ccc(NC(=O)c3ccc(N4C(=O)CSC4c4ccc(N(CC)CC)cc4)cc3)cc2)cc1 (stereo not given) |  | > 100 µM (inactive) | > 100 µM (inactive) | > 100 µM (inactive) | > 100 µM | 96.8 µM (inactive) | 67 µM (inactive) | > 100 µM (inactive) | > 100 µM (inactive) | > 100 µM (inactive) | > 100 µM (inactive) | > 100 µM (inactive) | 30.1 µM (inactive) | > 100 µM (inactive) | > 100 µM (inactive) | > 100 µM (inactive) | > 100 µM (inactive) | > 100 µM (inactive)
6 | ClC1=NN=C(c2c[nH]c3ccccc23)CC1NCc1ccccc1 (stereo not given) | > 100 µM (inactive) | > 100 µM (inactive) | > 100 µM (inactive) | > 100 µM (inactive) | > 100 µM | > 100 µM (inactive) | > 100 µM (inactive) | > 100 µM (inactive) | > 100 µM (inactive) | > 100 µM (inactive) | > 100 µM (inactive) | > 100 µM (inactive) | > 100 µM (inactive) | > 100 µM (inactive) | > 100 µM (inactive) | > 100 µM (inactive) | > 100 µM (inactive) | 
7 | Cc1cc(C)c2c(n1)S(=O)(=O)N(CCCN1CCN(c3cccc(C(F)(F)F)c3)CC1)C(C(=O)c1ccc(Cl)cc1)=C2O | 4.52 µM (inactive) | 6.1 µM (inactive) | 1.11 µM (active) | 3.03 µM (inactive) | 1.85 µM | 3.58 µM (inactive) | 0.515 µM (active) | 2.65 µM (inactive) | 3.18 µM (inactive) | 2.47 µM (inactive) | 2.7 µM (inactive) | 4.71 µM (inactive) | 3.29 µM (inactive) | 5.21 µM (inactive) | 3.91 µM (inactive) | 3.84 µM (inactive) | 5.81 µM (inactive) | 
